Results on one molecule are retold here after ChEMBL document CHEMBL4402562, “Discovery of Novel Peptidomimetic Boronate ClpP Inhibitors with Noncanonical Enzyme Mechanism as Potent Virulence Blockers in Vitro and in Vivo” (J Med Chem, 2020).

Active and inactive are the calls of the source. The rule behind the calls is not given here.

In this assay the test system is Staphylococcus aureus. Description: Inhibition of Hla expression in methicillin-resistant Staphylococcus aureus ATCC 33591 at 16 uM by Western blot analysis. In kind it is functional, organism-based.

Take `CC(C)C[C@H](NC(=O)[C@H](Cc1c[nH]c2ccccc12)NC(=O)c1cc(Cl)ccc1Cl)B(O)O`: the inhibition entry is “Active”.
